This is an account of results in PubChem BioAssay (NCI).

What all share (test): DTP human tumour cell line panel, 48 h
Test [1] concerns CAKI-1 renal.
The subject of test [2] is SF-268 CNS.
The test system of test [3] is OVCAR-5 ovarian.
In test [4] the test system is COLO 205 colon.
The test system of test [5] is SW-620 colon.
For test [6], the system named is HOP-62 NSCLC.
For test [7], the system named is CCRF-CEM leukemia.
Test [8] deals with LOX IMVI melanoma.
For test [9], the system named is NCI-H23 lung.
For test [10], the system named is U251 CNS.

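The compound was tested at five concentrations on cells cultured in 96-well plates, with a 48-hour exposure period. The concentration for 50% growth inhibition is given as GI50. Definition used: TGI = concentration required for complete inhibition of growth.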 Where a SMILES comes first, the peptide text is derived from it. The star is where a group is joined. Palmitoyl = CCCCCCCCCCCCCCCC(=O)*

Turning to `CC12C=CC(=O)C=C1CCC1C3CCC(O)(C(=O)CO)C3(C)CC(O)C12F` (stereo not given), the TGI in test [1], in test [2], in [3], in test [4], in test [5] and in test [6] was more than 100 µM throughout. Besides, the TGI in test [7], in test [8], in test [9] and in test [10] was more than 100 µM each time.

With `CC(N)Cc1ccc(Cl)c(Cl)c1` (stereo not given), the TGI is 74.5 µM in [1]; more than 100 µM in test [2]; more than 82.5 µM in test [3]; 36.5 µM in test [4]; 51.8 µM in [5]; more than 100 µM in test [6]. Moreover, the TGI in test [7] was more than 78.1 µM; in test [8], more than 68.5 µM; in [9], more than 100 µM; in [10], more than 89.6 µM.

Consider `O=C(/C=C/c1ccc(Oc2cc(C(=O)/C=C/c3ccc(O)cc3)c(O)cc2O)cc1)c1ccc(O)cc1O`, for which the TGI was 18.1 µM in test [1]; 28.3 µM in [2]; 16.7 µM in [3]; 6.08 µM in test [4]; 19.8 µM in test [5]; 15.5 µM in test [6]. Besides, the TGI in [7] worked out at 10.8 µM; in [8] it was 28.6 µM; in test [9], 28.6 µM; in [10], 20.7 µM.

Consider `CON(C)c1nc(N(C)OC)nc(N(C)OC)n1`, for which the TGI in test [1], in test [2], in [3], in test [4], in test [5] and in [6] was more than 10 µM throughout. Besides, the TGI in test [7], in [8], in test [9] and in test [10] was more than 10 µM in each case.

`Cc1ccc(-c2nc(N/N=C/C=C/c3ccccc3)c3ccccc3n2)cc1`: the TGI was more than 100 µM in [1]; more than 100 µM in test [2]; 48.1 µM in test [3]; more than 100 µM in test [4]; more than 100 µM in [5]; more than 100 µM in [6]. Moreover, the TGI in test [7], in test [8], in [9] and in test [10] was more than 100 µM in each case.

For the molecule `C[N+](C)(C)c1ncnc2c1ncn2C1CC(O)C(CO)O1` (stereo not given), the total growth inhibition concentration (TGI) in [1], in [2], in [3], in test [4], in test [5] and in [6] was more than 100 µM each time. Further, the total growth inhibition concentration (TGI) in test [7], in [8], in test [9] and in test [10] was more than 100 µM each time.

On to `Cn1c(-c2ccccc2)cc(-c2cccs2)c1-c1cccs1`, for which the TGI in test [1], in [2], in [3], in test [4], in [5] and in [6] was more than 100 µM each time. The TGI in test [7], in [8], in [9] and in test [10] was more than 100 µM each time.

With `OCCN(CCO)c1ncnc2nc[nH]c12`, the TGI in test [1], in [2], in test [3], in [4], in [5] and in test [6] was more than 100 µM throughout. Further, the TGI in test [7], in test [8], in test [9] and in [10] was more than 100 µM each time.

Turning to `COC(=O)/C=C(\CC(=O)OC)n1nnnc1[C@@H]1C[C@H](COC(c2ccccc2)(c2ccccc2)c2ccccc2)[C@H]2OC(C)(C)O[C@H]21`, the TGI in test [1], in test [2], in [3], in [4], in test [5] and in [6] was more than 100 µM throughout. In addition, the TGI in [7], in [8] and in test [10] was more than 100 µM throughout.

On to `CN1C(c2ccccc2)CC(=O)C(N)C1c1ccccc1` (stereo not given), for which the TGI in test [1] is more than 75.2 µM; in test [2], more than 100 µM; in test [3] it was more than 70.8 µM; in test [4], 32.5 µM; in [5], 57.1 µM; in test [6] it was more than 100 µM. In addition, the TGI is 66 µM in [7], 32.1 µM in test [8], more than 100 µM in test [9] and 49.2 µM in [10].

Consider `C/C(=N/N=C(\[O-])c1ccncc1)C(F)(F)F.C/C(=N\N=C(/[O-])c1ccncc1)C(F)(F)F.[Ni+2]`, for which the GI50 in [2] is more than 1 µM; in test [4], more than 1 µM; in [5], more than 1 µM; in test [6], more than 1 µM; in [7], more than 1 µM; in test [8], more than 1000 nM. The GI50 in [9] is more than 1 µM; in test [10], more than 1000 nM. The TGI in test [2], in [4], in [5], in test [6], in test [7] and in [8] was more than 1 µM each time. For the same molecule, the TGI in [9] was more than 1 µM.

As for `CCCCCCCCCCCCCCCC(=O)N1CCCC1C(=O)NCC(=O)NC(Cc1ccccc1)C(=O)NC(C)C(=O)NC(CO)C(=O)NC(Cc1ccc(O)cc1)C(=O)NC(CCCCN)C(=O)NC(CC(C)C)C(=O)NC(CCCN=C(N)N)C(=O)N1CCCC1C(=O)NCC(N)=O` (stereo not given) (Palmitoyl-PGFASYKLRPG-NH2; configuration not given here), the GI50 was 12.4 µM in test [1]; 16.3 µM in [2]; 15.4 µM in test [3]; 10.9 µM in test [4]; 37.5 µM in test [5]; 21.1 µM in test [6]. The GI50 in test [7] is 16.5 µM; in [9] it was 23.6 µM. Further, the TGI is 32.1 µM in [1]; 36 µM in test [2]; 38.6 µM in test [3]; 22.8 µM in test [4]; more than 100 µM in test [5]; 46 µM in [6]. The TGI in [7] stood at 30.1 µM; in test [9], 58.9 µM.
